The values that follow are results of earlier work, collected in patent US20050182128A1, “Use of anethole dithiolethione in lung cancer chemoprevention” (priority 2002, published 2005).

Data set [1] has as its system metaplasia. The conditions noted are these: metaplasia as intermediate endpoint biomarker; cited from earlier work.
Data set [2] deals with glutathione-S-transferase (GST). The conditions noted are these: rat model of hepatoma; p<0.01; cited from earlier work.
The conditions of data set [3]: in vivo; cited from earlier work.
For data set [4], the system named is aflatoxins. The conditions noted are these: in vivo; cited from earlier work.

Regarding `CC1=C(/C=C/C(C)=C/C=C/C(C)=C/C(=O)Nc2ccc(O)cc2)C(C)(C)CCC1` [N-(4-Hydroxyphenyl)retinamide], in data set [1], the Chemopreventive efficacy entry is “not found to be effective”.
For the compound `Cc1c(-c2cnccn2)ssc1=S` [Oltipraz, 5-(2-pyrazinyl)-4-methyl-1,2-dithiol-3-thione], the “Mean GST levels in the liver” value in data set [2] is “statistically increased”. Moreover, in data set [3], the Toxicity in chemoprevention result was “too toxic for chemoprevention”. In addition, in data set [4], the “Phase I activation of aflatoxins” value is “inhibited phase I activation of aflatoxins” and the “Phase II conjugation of aflatoxin” value is recorded as “increased phase II conjugation of aflatoxin”.
Regarding `CC1=C(/C=C/C(C)=C/C=C/C(C)=C\C(=O)O)C(C)(C)CCC1` [isotretinoin], the Chemopreventive efficacy entry in data set [1] is recorded as “not found to be effective”.
